Assay results reported in PubChem BioAssay AID248 (DTP/NCI, 2004).
Inconclusive results and toxic doses are left out. No stated cut-off is given here; in the data, active means T/C of 150% or more; inactive means T/C below 125%.

Tested on: L1210 leukemia ip in BDF1 mice, survival T/C
Experiment: NCI In Vivo Anticancer Drug Screen. Data for tumor model L1210 Leukemia (intraperitoneal) in B6D2F1 (BDF1) mice
Conditions: higher = longer survival
Summary of the method: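 Antitumor effect is assessed in tumor-bearing animals. Survival in the compound arm is compared with a vehicle-dosed control arm and expressed as their quotient.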

[1] = endpoint: mean survival time, dose: 100.0 mg/kg/injection, schedule: Q04DX003 (ip), vehicle: Klucel (hydroxypropylcellulose) (HPC)
[2] = endpoint: mean survival time, dose: 200.0 mg/kg/injection, schedule: Q04DX003 (ip), vehicle: Klucel (hydroxypropylcellulose) (HPC)
[3] = endpoint: mean survival time, dose: 400.0 mg/kg/injection, schedule: Q04DX003 (ip), vehicle: Klucel (hydroxypropylcellulose) (HPC)
[4] = endpoint: mean survival time, dose: 75.0 mg/kg/injection, schedule: Q01DX001 (ip), vehicle: saline
[5] = endpoint: mean survival time, dose: 100.0 mg/kg/injection, schedule: Q01DX001 (ip), vehicle: Klucel (hydroxypropylcellulose) (HPC)
[6] = endpoint: mean survival time, dose: 200.0 mg/kg/injection, schedule: Q01DX001 (ip), vehicle: Klucel (hydroxypropylcellulose) (HPC)
[7] = endpoint: mean survival time, dose: 400.0 mg/kg/injection, schedule: Q01DX001 (ip), vehicle: Klucel (hydroxypropylcellulose) (HPC)
[8] = endpoint: mean survival time, dose: 50.0 mg/kg/injection, schedule: Q01DX009 (ip), vehicle: Klucel (hydroxypropylcellulose) (HPC)
[9] = endpoint: mean survival time, dose: 100.0 mg/kg/injection, schedule: Q01DX009 (ip), vehicle: Klucel (hydroxypropylcellulose) (HPC)
[10] = endpoint: mean survival time, dose: 100.0 mg/kg/injection, schedule: Q04DX002 (ip), vehicle: saline with Tween-80
[11] = endpoint: mean survival time, dose: 200.0 mg/kg/injection, schedule: Q01DX009 (ip), vehicle: Klucel (hydroxypropylcellulose) (HPC)
[12] = endpoint: mean survival time, dose: 200.0 mg/kg/injection, schedule: Q04DX002 (ip), vehicle: saline with Tween-80
[13] = endpoint: mean survival time, dose: 400.0 mg/kg/injection, schedule: Q04DX002 (ip), vehicle: saline with Tween-80
[14] = endpoint: mean survival time, dose: 100.0 mg/kg/injection, schedule: Q01DX001 (ip), vehicle: saline
[15] = endpoint: mean survival time, dose: 100.0 mg/kg/injection, schedule: Q04DX003 (ip), vehicle: saline
[16] = endpoint: mean survival time, dose: 200.0 mg/kg/injection, schedule: Q01DX001 (ip), vehicle: saline
[17] = endpoint: mean survival time, dose: 200.0 mg/kg/injection, schedule: Q04DX003 (ip), vehicle: saline
[18] = endpoint: mean survival time, dose: 400.0 mg/kg/injection, schedule: Q01DX001 (ip), vehicle: saline
[19] = endpoint: mean survival time, dose: 400.0 mg/kg/injection, schedule: Q04DX003 (ip), vehicle: saline
[20] = endpoint: mean survival time, dose: 200.0 mg/kg/injection, schedule: Q01DX009 (ip), vehicle: saline
[21] = endpoint: mean survival time, dose: 100.0 mg/kg/injection, schedule: Q01DX009 (ip), vehicle: saline with Tween-80
[22] = endpoint: mean survival time, dose: 200.0 mg/kg/injection, schedule: Q01DX009 (ip), vehicle: saline with Tween-80
[23] = endpoint: mean survival time, dose: 400.0 mg/kg/injection, schedule: Q01DX009 (ip), vehicle: Klucel (hydroxypropylcellulose) (HPC)
[24] = endpoint: mean survival time, dose: 100.0 mg/kg/injection, schedule: Q04DX003 (ip), vehicle: saline with Tween-80
[25] = endpoint: mean survival time, dose: 200.0 mg/kg/injection, schedule: Q04DX003 (ip), vehicle: saline with Tween-80
[26] = endpoint: mean survival time, dose: 75.0 mg/kg/injection, schedule: Q04DX003 (ip), vehicle: saline
[27] = endpoint: mean survival time, dose: 150.0 mg/kg/injection, schedule: Q04DX003 (ip), vehicle: saline
[28] = endpoint: mean survival time, dose: 400.0 mg/kg/injection, schedule: Q01DX009 (ip), vehicle: saline with Tween-80

Measured: T/C

C[C@]12CC[C@@H]3c4ccc(O)cc4CC[C@H]3[C@@H]1CC[C@@H]2O
inactive: endpoint: mean survival time, dose: 500.0 mg/kg/injection, schedule: Q01DX Z (sc), vehicle: water 93 % of control | endpoint: mean survival time, dose: 1000.0 mg/kg/injection, schedule: Q01DX Z (sc), vehicle: water 90 % of control

Cc1cccc(C)c1NC(=O)Nc1ccc2c(c1)OCO2
inactive: [1] 93 % of control | [2] 92 % of control | [3] 88 % of control

CCCCOP(=O)(OCCCC)O/C(C)=C(\C)OP(=O)(OCCCC)OCCCC
inactive: endpoint: mean survival time, dose: 87.5 mg/kg/injection, schedule: Q01DX009 (ip), vehicle: carboxymethylcellulose (CMC) 92 % of control | endpoint: mean survival time, dose: 175.0 mg/kg/injection, schedule: Q01DX009 (ip), vehicle: carboxymethylcellulose (CMC) 98 % of control

c1ccc([P+]2(c3ccccc3)CC[P+](c3ccccc3)(c3ccccc3)CC2)cc1
inactive: endpoint: mean survival time, dose: 9.5 mg/kg/injection, schedule: Q01DX001 (ip), vehicle: saline 103 % of control | endpoint: mean survival time, dose: 19.0 mg/kg/injection, schedule: Q01DX001 (ip), vehicle: saline 101 % of control | endpoint: mean survival time, dose: 38.0 mg/kg/injection, schedule: Q01DX001 (ip), vehicle: saline 97 % of control | [4] 100 % of control

O=C1OCC(CN2CC3CCC(CC3)C2)=C1c1ccccc1
inactive: [5] 94 % of control | [6] 102 % of control | [7] 94 % of control

CCOC(=O)c1[nH]c(C)c(C(=O)OCC)c1C
inactive: [8] 95 % of control | [9] 95 % of control | [10] 99 % of control | [11] 103 % of control | [12] 102 % of control | [13] 102 % of control | endpoint: median survival time, dose: 10.0 mg/kg/injection, schedule: Q04DX002 (ip), vehicle: Klucel (hydroxypropylcellulose) (HPC) 100 % of control | endpoint: median survival time, dose: 200.0 mg/kg/injection, schedule: Q04DX002 (ip), vehicle: Klucel (hydroxypropylcellulose) (HPC) 89 % of control | endpoint: median survival time, dose: 400.0 mg/kg/injection, schedule: Q04DX002 (ip), vehicle: Klucel (hydroxypropylcellulose) (HPC) 107 % of control

O=[N+]([O-])c1cc(Cl)c(Cl)cc1NCCCO
inactive: [14] 95 % of control | endpoint: mean survival time, dose: 100.0 mg/kg/injection, schedule: Q01DX009 (ip), vehicle: acetone 95 % of control | [15] 91 % of control | [16] 96 % of control | endpoint: mean survival time, dose: 200.0 mg/kg/injection, schedule: Q01DX009 (ip), vehicle: acetone 97 % of control | [17] 96 % of control | [18] 92 % of control | [19] 89 % of control

COC1CCCC(/C(=C\Br)c2ccccc2)C1 (configuration not stated)
inactive: [14] 106 % of control | [16] 106 % of control | [18] 115 % of control

CC1CCC2(C)CCC3(C)C4=CCC5C(C)(C)C(O)CCC5(C)C4CCC3(C)C2C1C (configuration not stated)
inactive: [20] 87 % of control | endpoint: mean survival time, dose: 400.0 mg/kg/injection, schedule: Q01DX009 (ip), vehicle: saline 96 % of control

O=C(Nc1ccc(Cl)cc1Cl)Oc1ccc(F)cc1
inactive: endpoint: mean survival time, dose: 50.0 mg/kg/injection, schedule: Q01DX009 (ip), vehicle: saline with Tween-80 94 % of control | [21] 94 % of control | [22] 102 % of control

Nc1nc(-c2ccccc2)c(CC(=O)O)s1
inactive: [1] 93 % of control | [2] 100 % of control | [3] 96 % of control

Clc1c(Cl)c(CBr)c(Cl)c(CBr)c1Cl
inactive: [8] 104 % of control | [1] 103 % of control | [2] 109 % of control

Cc1cc(C)n(/N=C/c2ccccc2[N+](=O)[O-])c(=O)c1C#N
inactive: [9] 91 % of control | [1] 102 % of control | [11] 92 % of control | [2] 93 % of control | [23] 92 % of control | [3] 96 % of control

C1CC2CCCC(C1)S2
inactive: [4] 102 % of control | endpoint: mean survival time, dose: 150.0 mg/kg/injection, schedule: Q01DX001 (ip), vehicle: saline 100 % of control | endpoint: mean survival time, dose: 300.0 mg/kg/injection, schedule: Q01DX001 (ip), vehicle: saline 96 % of control

CC1CCC(NC2=NCCO2)C(C)C1 (configuration not stated)
inactive: [24] 91 % of control

O=C(O)CCC(=O)Nc1ccc(Cl)cc1
inactive: [24] 97 % of control | [25] 94 % of control | endpoint: mean survival time, dose: 400.0 mg/kg/injection, schedule: Q04DX003 (ip), vehicle: saline with Tween-80 86 % of control

CCOc1ccc(/C=C/C(=O)c2ccc(C)cc2)cc1OCC
inactive: [26] 100 % of control | [27] 102 % of control | endpoint: mean survival time, dose: 300.0 mg/kg/injection, schedule: Q04DX003 (ip), vehicle: saline 105 % of control

COC(=O)/C=C(\C)Nc1cc(OC)ccc1OC
inactive: [14] 94 % of control | [16] 87 % of control | [18] 92 % of control

CSc1ccc(NC(=O)Nc2ccc(S(N)(=O)=O)cc2)cc1
inactive: [21] 106 % of control | [1] 104 % of control | [22] 95 % of control | [2] 100 % of control | [28] 102 % of control | [3] 98 % of control

CC(CN=[N+]=[N-])OC(=O)C(F)(F)F (configuration not stated)
inactive: endpoint: mean survival time, dose: 37.5 mg/kg/injection, schedule: Q04DX003 (ip), vehicle: saline 104 % of control | [26] 102 % of control | [27] 106 % of control

O=[N+]([O-])c1cnc2ccnn2c1
inactive: [9] 101 % of control | [1] 100 % of control | [11] 97 % of control | [2] 92 % of control | [23] 111 % of control | [3] 100 % of control

CCCCOP(=O)(CCl)OCCCC
inactive: [9] 98 % of control | [1] 97 % of control | [11] 103 % of control | [2] 97 % of control | [3] 95 % of control

N#CC(C#N)=Cc1c[nH]c2ccccc12
inactive: [21] 86 % of control | [24] 95 % of control | [22] 89 % of control | [25] 97 % of control | [28] 86 % of control

CC(CCl)OP(=O)(Cc1ccccc1)OC(C)CCl (configuration not stated)
inactive: [10] 91 % of control | [12] 98 % of control | [13] 98 % of control

CCNc1ccccc1-c1nc2ccccc2[nH]1
inactive: [8] 93 % of control | [9] 100 % of control | [11] 102 % of control

[N-]=[N+]=[N-]
inactive: endpoint: mean survival time, dose: 10.0 mg/kg/injection, schedule: Q01DX001 (ip), vehicle: saline 100 % of control | endpoint: mean survival time, dose: 20.0 mg/kg/injection, schedule: Q01DX001 (ip), vehicle: saline 100 % of control

C1CCC2(CC1)SC1(CCCCC1)SC1(CCCCC1)S2
inactive: endpoint: mean survival time, dose: 100.0 mg/kg/injection, schedule: Q01DX009 (ip), vehicle: other 94 % of control | endpoint: mean survival time, dose: 100.0 mg/kg/injection, schedule: Q04DX003 (ip), vehicle: other 95 % of control | endpoint: mean survival time, dose: 200.0 mg/kg/injection, schedule: Q01DX009 (ip), vehicle: other 95 % of control | endpoint: mean survival time, dose: 200.0 mg/kg/injection, schedule: Q04DX003 (ip), vehicle: other 97 % of control | endpoint: mean survival time, dose: 400.0 mg/kg/injection, schedule: Q01DX009 (ip), vehicle: other 92 % of control | endpoint: mean survival time, dose: 400.0 mg/kg/injection, schedule: Q04DX003 (ip), vehicle: other 97 % of control

O=C(/C(=C\c1ccccc1)CBr)c1ccc(Cl)cc1
inactive: [24] 119 % of control

Cc1ccc(N2CCN(CC(O)c3ccccc3)CC2)cc1 (configuration not stated)
inactive: [8] 95 % of control | [9] 95 % of control | [11] 98 % of control

CNC1(C(N)=O)CCCCC1
inactive: endpoint: mean survival time, dose: 50.0 mg/kg/injection, schedule: Q01DX009 (ip), vehicle: saline 91 % of control | [14] 102 % of control | endpoint: mean survival time, dose: 100.0 mg/kg/injection, schedule: Q01DX009 (ip), vehicle: saline 96 % of control | [15] 100 % of control | [16] 107 % of control | [20] 106 % of control | [17] 100 % of control | [18] 104 % of control | [19] 96 % of control

O=C1C(Cl)=C(Cl)C2(Cl)C1(Cl)C1(Cl)C(=O)C(Cl)=C(Cl)C12Cl (configuration not stated)
inactive: [5] 99 % of control | [1] 104 % of control | [6] 97 % of control | [2] 98 % of control | [7] 94 % of control | [3] 96 % of control
